Source: ChEMBL document CHEMBL1156602, “Synthesis and antiviral properties of some polyphenols related to Salvia genus” (Bioorg Med Chem Lett, 2008)

What was measured:
[1] = Cytotoxicity against human MT4 cells by MTT assay; type: cell-based
[2] = target: T1, Human immunodeficiency virus type 1 integrase (Human immunodeficiency virus 1, UniProt Q7ZJM1); assay: Inhibition of HIV1 integrase by overall integration assay
[3] = tested on: Human immunodeficiency virus 1; assay: Antiviral activity against HIV1 in MT4 cells assessed as inhibition of virus-induced cytopathic effect by MTT assay; type: functional, organism-based; conditions: Human immunodeficiency virus 1, MT4
[4] = target: T1, Human immunodeficiency virus type 1 integrase; assay: Inhibition of HIV1 integrase strand transfer activity
[5] = target: T1, Human immunodeficiency virus type 1 integrase; assay: Inhibition of HIV1 integrase catalyzed reactions
[6] = tested on: Human immunodeficiency virus 1; assay: Antiviral activity against HIV1 LAI in MT2 cells assessed as inhibition of virus-induced cytopathic effect; type: functional; conditions: Human immunodeficiency virus 1, LAI, read-out: ED50 (the source's name)
[7] = Cytotoxicity against human MT2 cells after 48 hrs; type: cell-based; conditions: read-out: LD50
[8] = target: T1, Human immunodeficiency virus type 1 integrase; assay: Inhibition of HIV1 integrase in presence of Mn2+

T1 sequence (Q7ZJM1 whole entry): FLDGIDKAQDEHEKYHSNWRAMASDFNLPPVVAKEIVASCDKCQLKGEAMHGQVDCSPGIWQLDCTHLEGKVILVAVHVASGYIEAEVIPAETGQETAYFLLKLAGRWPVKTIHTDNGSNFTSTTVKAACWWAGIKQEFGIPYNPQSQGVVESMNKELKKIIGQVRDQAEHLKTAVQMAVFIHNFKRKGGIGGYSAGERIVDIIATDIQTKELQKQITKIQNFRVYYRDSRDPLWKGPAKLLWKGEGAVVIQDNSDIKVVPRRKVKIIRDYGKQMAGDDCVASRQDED

## O=C(O)/C=C/c1ccc(O)c(O)c1/C(=C/c1ccc(O)c(O)c1)C(=O)O
[1]
  CC50: 4.5 µM
[2]
  IC50: 0.56 µM
[3]
  EC50: > 4.5 µM
[4]
  IC50: 0.73 µM

## O=C(/C=C/c1ccc(O)c(O)c1)O[C@@H]1C[C@](O)(C(=O)O)C[C@@H](OC(=O)/C=C/c2ccc(O)c(O)c2)[C@H]1O
[5]
  IC50: 0.64 µM
[6]
  EC50: 1.9 µM
[7]
  CC50 at 48 h: 300 µM

## O=C(/C=C/c1ccc(O)c(O)c1)O[C@@H](C(=O)O)[C@@H](OC(=O)/C=C/c1ccc(O)c(O)c1)C(=O)O [CICHORIC ACID]
[7]
  CC50 at 48 h: 700 µM

## O=C(O)/C=C/c1ccc(O)c(O)c1CC(=O)O
[1]
  CC50: 44 µM
[2]
  IC50: 1.34 µM
[3]
  EC50: > 44 µM
[4]
  IC50: 1.09 µM

## O=C(O)/C=C/c1ccc(O)c(O)c1 [CAFFEIC ACID]
[8]
  IC50: 2.8 µM
[2]
  IC50: 2.8 µM
[4]
  IC50: 24 µM

## O=C(O)/C=C/c1ccc(O)c2c1C1C(=O)c3cc(O)c(O)cc3C1O2 (racemic)
[1]
  CC50: 23.3 µM
[2]
  IC50: 0.15 µM
[3]
  EC50: > 23.3 µM
[4]
  IC50: 0.3 µM
